What follows are compounds tested against T1, Progesterone receptor (Rattus norvegicus, UniProt Q63449) (assay: Inhibitory progestational activity on oral administration in uterine C3 model).
T1 sequence (Q63449 whole entry): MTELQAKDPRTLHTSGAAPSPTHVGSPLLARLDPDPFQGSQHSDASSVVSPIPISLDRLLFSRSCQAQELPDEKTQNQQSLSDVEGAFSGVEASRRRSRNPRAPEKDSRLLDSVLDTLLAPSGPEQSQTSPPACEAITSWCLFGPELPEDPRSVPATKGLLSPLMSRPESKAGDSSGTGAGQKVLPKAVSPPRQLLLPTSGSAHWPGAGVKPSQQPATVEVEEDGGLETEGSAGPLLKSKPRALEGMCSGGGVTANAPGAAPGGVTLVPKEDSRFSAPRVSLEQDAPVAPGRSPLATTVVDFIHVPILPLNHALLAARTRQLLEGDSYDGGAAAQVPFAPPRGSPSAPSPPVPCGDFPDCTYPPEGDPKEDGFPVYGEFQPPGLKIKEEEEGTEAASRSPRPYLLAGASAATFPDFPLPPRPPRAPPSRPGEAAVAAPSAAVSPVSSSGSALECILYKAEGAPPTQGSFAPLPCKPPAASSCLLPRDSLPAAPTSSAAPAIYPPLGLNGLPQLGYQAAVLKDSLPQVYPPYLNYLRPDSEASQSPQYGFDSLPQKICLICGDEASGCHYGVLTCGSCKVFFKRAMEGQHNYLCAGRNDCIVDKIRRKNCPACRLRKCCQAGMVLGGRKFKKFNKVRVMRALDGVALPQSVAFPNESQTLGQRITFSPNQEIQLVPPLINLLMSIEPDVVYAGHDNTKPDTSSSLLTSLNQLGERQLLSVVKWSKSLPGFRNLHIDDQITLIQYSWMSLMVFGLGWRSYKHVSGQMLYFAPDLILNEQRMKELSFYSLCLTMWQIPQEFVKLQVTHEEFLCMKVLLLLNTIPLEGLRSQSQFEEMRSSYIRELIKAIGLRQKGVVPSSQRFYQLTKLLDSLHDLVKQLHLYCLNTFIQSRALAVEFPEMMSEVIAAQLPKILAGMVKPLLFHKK
`N#Cc1cccc(-c2ccc3c(c2)C2(CCCCC2)C(=S)N3)c1` showed an IC50 of 942 nM.
In the case of `N#Cc1cc(F)cc(-c2ccc3c(c2)C2(CCCCC2)C(S)=N3)c1` [3-fluoro-5-(2'-thioxo-1',2'-dihydrospiro[cyclohexane-1,3'-indol]-5'-yl)benzonitrile], the IC50 is reported as 7.43 nM.
`N#Cc1ccc(-c2ccc3c(c2)C2(CCCCC2)C(=S)N3)s1` gave an IC50 of 92.5 nM.
For `S=C1Nc2ccc(-c3cccc(Cl)c3)cc2C12CCCCC2`, the IC50 was 1120 nM.
`CC(=O)O[C@]1(C(C)=O)CC[C@H]2[C@@H]3C[C@H](C)C4=CC(=O)CC[C@]4(C)[C@H]3CC[C@@]21C` [17-Acetoxy-6alpha-methylprogesterone] gave an IC50 of 67.3 nM.
